From PubChem BioAssay (NCI)
“And” between values parts separate entries of the source, which are not always exact repeats. Equal values may be shown once.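 Assay format: 96-well plates, 48-hour exposure. Abbreviation: GI50, concentration required for 50% inhibition of growth. TGI: total growth inhibition.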 The source made the active and inactive calls. Cut-off read from the data, not from the text of the source: active = GI50 below about 0.43 µM; inactive = the rest. Where a SMILES comes first, the peptide text is derived from it. [ ]: non-standard residue; d: D form. The star is where a group is joined. ξ: configuration not given here. NMeN = CN[C@@H](CC(N)=O)C(=O)O; NMeV = CN[C@H](C(=O)O)C(C)C; ξNMeV = CNC(C(=O)O)C(C)C; Boc = CC(C)(C)OC(=O)*; ξNMeA = CNC(C)C(=O)O

What was measured:
Test in all cases: NCI-60 cell line screen, 48 h
LXFL 529 NSCLC = test system: LXFL 529 NSCLC
SNB-78 CNS = test system: SNB-78 CNS
XF 498 CNS = test system: XF 498 CNS
RXF-631 renal = test system: RXF-631 renal
DLD-1 colon = test system: DLD-1 colon
DMS 114 small cell lung = test system: DMS 114 small cell lung
KM20L2 colon = test system: KM20L2 colon
DMS 273 small cell lung = test system: DMS 273 small cell lung
MDA-N = test system: MDA-N

Structure (SMILES)	TGI (LXFL 529 NSCLC)	TGI (SNB-78 CNS)	TGI (XF 498 CNS)	TGI (DLD-1 colon)	TGI (DMS 114 small cell lung)	TGI (KM20L2 colon)	TGI (DMS 273 small cell lung)	TGI (MDA-N)	other results
CC(=O)/C(=C\C1=CCCO1)C(=O)Nc1ccccc1C	> 100 µM	> 100 µM	> 100 µM	> 100 µM	> 100 µM				TGI (RXF-631 renal): > 100 µM
CC/C(=C(/CC)c1ccc(O)cc1)c1ccc([O-])cc1.CC/C(=C(/CC)c1ccc(O)cc1)c1ccc([O-])cc1.O=C([CH-]C(=O)c1ccccc1)c1ccccc1.O=C([CH-]C(=O)c1ccccc1)c1ccccc1.[Ti+4]		> 100 µM		28.9 µM		41.3 µM	> 100 µM		GI50 (KM20L2 colon): 19.3 µM; GI50 (SNB-78 CNS): 27.1 µM; GI50 (DMS 273 small cell lung): 16.3 µM; GI50 (DLD-1 colon): 10.8 µM
COc1cc(C(c2cc3c(cc2O)OCO3)N2CCCCC2)cc(OC)c1OC (stereo not given)								19.8 µM	
CN1CCCCCC(=N\O)/C(=N/O)CCCCC1								> 100 µM	
COC(=O)C(C)N(C)C(=O)[C@H](CC(N)=O)N(C)C(=O)[C@@H]1CCCN1C(=O)[C@H](C(C)C)N(C)C(=O)C(C(C)C)N(C)C(=O)[C@@H](NC(=O)OC(C)(C)C)C(C)C (stereo not given in full) (Boc-V[ξNMeV][NMeV]P[NMeN][ξNMeA]-OMe)	> 100 µM	> 100 µM	> 100 µM	> 100 µM		> 100 µM	> 100 µM	> 50 µM	
Cc1cc2cc3c(C)cc(=O)oc3c(C)c2o1								> 100 µM	
O=C1NC2CCC(C2)C1c1ccccc1 (stereo not given)	> 100 µM	> 100 µM		> 100 µM	> 100 µM		> 100 µM		TGI (RXF-631 renal): > 100 µM
Cc1cccc(Cl)c1NC(=O)/C=C/c1ccccc1								> 100 µM	
COC(=O)C12CC(c3ccccc31)C1C(=O)OC(=O)C12 (stereo not given)	> 100 µM	> 100 µM	> 100 µM	> 100 µM	> 100 µM	> 100 µM	> 100 µM		
O=C1NC(=S)NC(=O)C1=Cc1cccc2cc3ccccc3cc12								4.69 µM	
O=[N+]([O-])c1ccc(N=Nc2c(O)ccc3ccccc23)cc1								> 100 µM	
CCN(CC)CCNC(=O)c1nn(C)c(=S)[nH]c1=S	> 100 µM	> 100 µM	> 100 µM	> 100 µM	> 100 µM	> 100 µM	> 100 µM		
Nc1nc(=S)[nH]c(C(=O)Nc2ccc(Cl)c(Cl)c2)c1-c1ccc(Cl)cc1	> 100 µM		> 100 µM	> 100 µM	> 100 µM	> 100 µM			TGI (RXF-631 renal): > 100 µM
Cc1ccc(NC(=O)CCC/C(CC(=O)c2ccc(Br)cc2)=N/NC(=O)CC#N)cc1	> 100 µM	> 100 µM		> 100 µM	> 100 µM	> 100 µM			
C[C@]12CC[C@H](OCCC#N)CC1=CC[C@@H]1C2CC[C@]2(C)/C(=N/OCCC#N)CCC12 (stereo not given in full)	> 100 µM	> 90 µM	48.9 µM	> 100 µM	> 100 µM	> 100 µM	> 100 µM		
Cc1cccc(C)c1NC(=O)CCc1nnc2s/c(=C\c3ccc(Cl)cc3)c(=O)n12	> 100 µM	> 100 µM	> 100 µM	> 100 µM	> 100 µM	> 100 µM	> 100 µM		
CN(C)CC/C(=N\Nc1ccccc1)c1ccccc1		89.7 µM	23.4 µM	> 100 µM	> 100 µM				
C=CCC(C(=O)O)c1ccccc1 (stereo not given)								> 100 µM	
O=C1c2ccccc2C2(O)NC(=S)N(c3ccccc3)C12O (stereo not given)	> 100 µM	> 100 µM	> 100 µM	> 100 µM	> 100 µM	> 100 µM			
CCC[CH2][Sn]([CH2]CCC)([O]C(=O)C(N)CSC)[O]C(=O)C(N)CSC (stereo not given)	3.49 µM	9.64 µM	19 µM	18.3 µM	12.8 µM	53.4 µM			GI50 (LXFL 529 NSCLC): 0.969 µM; GI50 (KM20L2 colon): 18.6 µM; GI50 (SNB-78 CNS): 3.17 µM; GI50 (XF 498 CNS): 5.54 µM; GI50 (RXF-631 renal): 3.16 µM; TGI (RXF-631 renal): 17.3 µM; GI50 (DLD-1 colon): 6.44 µM; GI50 (DMS 114 small cell lung): 2.72 µM
COc1cc(C(=O)C/C(CCC(=O)Nc2ccc(Cl)cc2C)=N/NC(=O)C(N)=O)ccc1O	> 100 µM	> 100 µM	> 100 µM	> 100 µM	> 100 µM	> 100 µM	> 100 µM		
CC(=O)N/C(=C\c1cccc([N+](=O)[O-])c1)c1nc2c3c(ccc2[nH]1)C(=O)c1ccccc1C3=O	> 100 µM	> 100 µM	> 100 µM	> 100 µM	> 100 µM	> 100 µM			TGI (RXF-631 renal): > 100 µM

Structure (SMILES)	TGI (LXFL 529 NSCLC)	TGI (SNB-78 CNS)	TGI (XF 498 CNS)	TGI (DLD-1 colon)	TGI (DMS 114 small cell lung)	TGI (KM20L2 colon)	TGI (DMS 273 small cell lung)	TGI (MDA-N)	other results
COc1ccc2cc3[n+](cc2c1OC)CCc1cc(O)c(O)cc1-3	> 100 µM	> 100 µM	> 100 µM	> 100 µM	> 100 µM	> 100 µM	> 100 µM		TGI (RXF-631 renal): > 100 µM
Cn1nc(-c2ccccc2)nc1[N+](=O)[O-]								> 10 µM	
COc1cc2cc(C(=O)Nc3cc(N)c4ccccc4c3CCCl)[nH]c2c(OC)c1OC								0.219 µM	GI50 (MDA-N): 0.0568 µM
Cc1nc2cc(N)c(F)cc2[nH]1	> 100 µM	> 100 µM	> 100 µM	> 100 µM	> 100 µM		> 100 µM		
CCCCc1ccc(-n2c3nc(=O)n(C)c(=O)c-3nc3ccccc32)cc1	30.4 µM	39 µM	32.4 µM		18.5 µM	14.4 µM	26.4 µM		TGI (RXF-631 renal): 35.3 µM
NC1CCCCC1N.O=S(=O)([O-])CCCN1CCOCC1.O=S(=O)([O-])CCCN1CCOCC1.[Pt+4]	> 100 µM	> 100 µM		> 100 µM		> 100 µM	> 100 µM		GI50 (LXFL 529 NSCLC): 27.4 µM; GI50 (KM20L2 colon): 5.48 µM; GI50 (SNB-78 CNS): > 100 µM; GI50 (DMS 273 small cell lung): 4.87 µM; GI50 (DLD-1 colon): 28.3 µM
CCCCCCCCCCC(O)C1CCC(C(O)CCC(O)C2CCC(CCCCCCC[C@H](O)CC3=C[C@@H](C)OC3=O)O2)O1 (stereo not given in full)	> 100 µM	> 100 µM	> 100 µM	> 100 µM		> 100 µM	> 100 µM		TGI (RXF-631 renal): > 100 µM
COC1OC(C)C(O)CC1OS(=O)(=O)c1ccc(C)cc1 (stereo not given)	> 100 µM	> 100 µM			> 100 µM	> 100 µM	> 100 µM		
c1ccc2c(c1)-c1ccccc1C2N1CC2CCC(CC2)C1								> 100 µM	
CCOC(=O)C1=C(Nc2ccc(Cl)cc2Cl)OC/C1=N\NS(=O)(=O)c1ccc(C)cc1	> 100 µM	> 100 µM		> 100 µM	> 100 µM	> 100 µM	> 100 µM		
CCCC(C)C[C@@H](C)CC(C)/C=C(\C)c1oc(=O)c(C)c(O)c1C (stereo not given in full) (tested in a mixture with another compound)	25.9 µM	45.9 µM		27.8 µM	32.2 µM	25.7 µM	32.4 µM		
Cc1cc(C)nc(NS(=O)(=O)c2ccc(Nc3c4ccc(Cl)cc4nc4c(C(=O)Nc5ccc(S(=O)(=O)N=C(N)N)cc5)cccc34)cc2)n1	> 100 µM	> 100 µM	> 100 µM	> 100 µM	> 100 µM	> 100 µM			
CCc1nc(N)nc(C(=O)NCCNC(=O)c2nc(N)nc(CC)c2C)c1C	> 100 µM	> 100 µM	> 100 µM	> 100 µM	> 100 µM	> 100 µM	> 100 µM		TGI (RXF-631 renal): > 100 µM
Nc1ncn(C2C=C(CO)C(O)C2O)c(=O)n1 (stereo not given)	> 100 µM	> 100 µM		> 100 µM		> 100 µM	> 100 µM		TGI (RXF-631 renal): > 100 µM
COC(=O)C(=O)C(C#N)c1ccc(CC#N)cc1 (stereo not given)	> 100 µM	> 100 µM	> 100 µM	> 100 µM		> 100 µM	> 100 µM		
C=C1C(=O)[C@@]23CC1C(O)[C@@H](OC(C)=O)[C@@H]2C1(C)C(OC(C)=O)C[C@@H](OC(C)=O)C(C)(C)[C@@H]1C[C@H]3OC(C)=O (stereo not given in full)					4.6 µg/mL			> 10 µM and 5.3 µg/mL	outcome (LXFL 529 NSCLC): inactive; outcome (KM20L2 colon): inactive; GI50 (MDA-N): 2.28 µg/mL; GI50 (DMS 114 small cell lung): 2.08 µg/mL
O=c1[nH]c2c3ccccc3ccc2c2cc3c(cc12)OCO3	> 100 µM	> 100 µM	> 100 µM	> 100 µM		> 100 µM	> 100 µM		TGI (RXF-631 renal): > 100 µM
C=C(C)CN(CC#N)CC(=C)C								> 100 µM	
Cc1ccc(C(=O)C(Cl)C(Cl)c2ccc(C)cc2)cc1 (stereo not given)								6.18 µM	
O=C([CH-]C(=O)c1ccccc1)c1ccccc1.O=C([CH-]C(=O)c1ccccc1)c1ccccc1.O=C([CH-]C(=O)c1ccccc1)c1ccccc1.[OH3+].[Y+3]									GI50 (KM20L2 colon): 5.92 µM
CCn1c(O)c(C=N)c(=O)n(CC)c1=O	> 100 µM	> 100 µM		> 100 µM	> 100 µM	> 100 µM	> 100 µM		TGI (RXF-631 renal): > 100 µM
O=C1c2cc([N+](=O)[O-])ccc2-c2cccc(F)c21								> 100 µM	
